Laboratory results reported in the NIST ThermoML archive (doi:10.1016/j.jct.2018.07.006).
Values joined by “and” are separate entries in the source; they are usually repeats but may differ in a detail not shown here. Equal values may be shown once. Numbers after ± are expanded uncertainties.

Assay: mn = molality of the nth substance listed, in mol/kg
Conditions: 100 kPa, Liquid; for speed of sound: Frequency=3 MHz, Single path-length method; for mass density: Vibrating tube method

In the case of `CC(C)(CO)[C@@H](O)C(=O)NCCCO` [d-Panthenol] + O, the speed of sound (293.15 K, m1 = 0.05) is reported as 1489.4 ± 2 m/s, the speed of sound (293.15 K, m1 = 0.1) is reported as 1494.1 ± 2 m/s and the speed of sound (293.15 K, m1 = 0.15) is reported as 1498.5 ± 2 m/s. It also gave a mass density (293.15 K, m1 = 0.05) of 999.509 ± 0.3 kg/m3, a mass density (293.15 K, m1 = 0.1) of 1001.62 ± 0.32 kg/m3 and a mass density (293.15 K, m1 = 0.15) of 1003.34 ± 0.32 kg/m3. It also gave a speed of sound (298.15 K, m1 = 0.05) of 1503 ± 2 m/s, a speed of sound (298.15 K, m1 = 0.1) of 1507.6 ± 2 m/s and a speed of sound (298.15 K, m1 = 0.15) of 1511.6 ± 2 m/s. For the same compound, the mass density (298.15 K, m1 = 0.05) was 998.191 ± 0.3 kg/m3, the mass density (298.15 K, m1 = 0.1) was 1000.22 ± 0.31 kg/m3 and the mass density (298.15 K, m1 = 0.15) was 1002.12 ± 0.32 kg/m3 and 1002.09 ± 0.32 kg/m3. For the same compound, the speed of sound (303.15 K, m1 = 0.05) was 1515.5 ± 2 m/s and 1516 ± 2 m/s, the speed of sound (303.15 K, m1 = 0.1) was 1519.5 ± 2 m/s and 1517.9 ± 2 m/s and the speed of sound (303.15 K, m1 = 0.15) was 1522.9 ± 2 m/s. The mass density (303.15 K, m1 = 0.05) was 996.926 ± 0.3 kg/m3, the mass density (303.15 K, m1 = 0.1) was 998.987 ± 0.31 kg/m3 and the mass density (303.15 K, m1 = 0.15) was 1000.58 ± 0.32 kg/m3. The speed of sound (308.15 K, m1 = 0.05) was 1525.2 ± 2 m/s, the speed of sound (308.15 K, m1 = 0.1) was 1529.1 ± 2.2 m/s and the speed of sound (308.15 K, m1 = 0.15) was 1532.5 ± 2 m/s. The mass density (308.15 K, m1 = 0.05) was 995.295 ± 0.3 kg/m3, the mass density (308.15 K, m1 = 0.1) was 997.338 ± 0.31 kg/m3 and the mass density (308.15 K, m1 = 0.15) was 998.985 ± 0.32 kg/m3.
